The test deals with T1, hGluR1 flip (Homo sapiens, UniProt P42261).
T1 construct: expressed in transfected cells; host or cells: CHO-K1
The test is described as follows: AMPA receptor function-enhancing activity using calcium influx as index. The format is cell-based. Particulars: test compound 30 μM with 3 mM glutamic acid; CHO-K1/GluR1 flip/stargazin-expressing cells; 100% = 3 mM glutamic acid + 300 μM cyclothiazide, 0% = 3 mM glutamic acid alone. The source says: Experimental Example 1 Measurement Method of AMPA Receptor Function-Enhancing Activity of Compound Using Calcium Influx as Index
(1) Construction of Expression Gene
Human GluR^1 flip cDNA was amplified by PCR method using forward primer […] (SEQ ID NO: 1) and reverse primer […] (SEQ ID NO: 2) artificially synthesized using human brain-derived cDNA (BD Bioscience) as a template. The amplified product was digested with restriction enzymes EcoRI, NotI (TAKARA SHUZO CO. LTD.) and incorporated into the same site of pcDNA3.1 (+) (Invitrogen) to construct pcDNA3.1(+)/human GluR1 flip gene. Human stargazin cDNA was amplified by PCR method using forward primer […] (SEQ ID NO: 3) and reverse primer […] (SEQ ID NO: 4) artificially synthesized using human hippocampus cDNA as a template. The amplified product was digested with restriction enzymes XhoI, BamHI (TAKARA SHUZO CO. LTD.) and incorporated into the same site of pcDNA3.1(−) (Invitrogen) to construct pcDNA3.1 Zeo(−)/human stargazing gene.
(2) Construction of GluR1 Flip/Stargazin Expressing Cell
CHO-K1 cells passaged in a culture medium (Ham's F12 medium (Invitrogen) added with 10% inactivated fetal bovine serum (Morgate) and penicillin, streptomycin (Invitrogen)) were detached using 0.05% trypsin and 0.53 mM EDTA (Invitrogen) diluted with D-PBS(−). The detached cells were suspended in a culture medium, and recovered by centrifugation at 1,000 rpm. The recovered cells were re-suspended in D-PBS(−) and added into 0.4 cm electroporation cuvette (BioRad). pcDNA3.1(+)/human GluR1 flip gene (5 μg) and pcDNA3.1 Zeo(−)/human stargazin gene (15 μg) were added, and introduced into CHO-K1 cells under the conditions of 950 μFd, […] and using Gene Pulser II (BioRad). The introduced cells were cultured overnight in a culture medium. The next day, using a selection medium (culture medium added with zeocin (Invitrogen) at 250 μg/mL), the cells were plated in a 96 well plate at 250 cells/well. The clones showing drug resistance were selected, and GluR1 flip/stargazin expression clones were selected by an assay method shown below using calcium influx as an index.
(3) Measurement Method of AMPA Receptor Function-Enhancing Activity of Compound, Using Calcium Influx as an Index
CHO-K1/GluR1 flip/stargazin-expressing cells were plated on a 384 well black bottom transparent plate, and cultured for 2 days in a CO2 incubator (SANYO ELECTRIC Co. Ltd.) at 37° C. The medium of the cell plate was removed. A calcium indicator (Calcium5 Assay Kit, Molecular Devices) was diluted with an assay buffer (HESS (Thermo Fisher Scientific), 0.1% BSA (Merck Millipoer) and 10 mM HEPES (Thermo Fisher Scientific)), and 1.25 mM probenecid (Dojindo Laboratories) was added thereto. The mixture prepared above was added at 30 μL/well (100 μL/well in case of 96 wells) to the well, and the well was left standing in 37° C., CO2 incubator for 1 hr. The cell plate was set in CellLux (PerkinElmer), a mixture (15 μL) (50 μL/well in case of 96 wells) of 9 mM glutamic acid (final concentration 3 mM) diluted with an assay buffer and a test compound (test compound concentration 30 μM) was added thereto, and variation in the amount of fluorescence was measured for 3 min. The variation of fluorescence level of a well added with final concentration 3 mM of glutamic acid and 300 μM cyclothiazide (TOCRIS) was defined as 100%, the variation of fluorescence level of a well added with final concentration 3 mM of glutamic acid alone was defined as 0%, and the activity of the compound was calculated by the following formula. activity (%)=(X−C)/(T−C)×100 • T: variation of fluorescence level of well added with final concentration 3 mM of glutamic acid and 300 μM cyclothiazide • C: variation of fluorescence level of well added with final concentration 3 mM of glutamic acid alone • X: variation of fluorescence level of well added with test compound

Each structure is given as a SMILES string.

T1 sequence (P42261 19-906 isoform P42261-2 limits assumed): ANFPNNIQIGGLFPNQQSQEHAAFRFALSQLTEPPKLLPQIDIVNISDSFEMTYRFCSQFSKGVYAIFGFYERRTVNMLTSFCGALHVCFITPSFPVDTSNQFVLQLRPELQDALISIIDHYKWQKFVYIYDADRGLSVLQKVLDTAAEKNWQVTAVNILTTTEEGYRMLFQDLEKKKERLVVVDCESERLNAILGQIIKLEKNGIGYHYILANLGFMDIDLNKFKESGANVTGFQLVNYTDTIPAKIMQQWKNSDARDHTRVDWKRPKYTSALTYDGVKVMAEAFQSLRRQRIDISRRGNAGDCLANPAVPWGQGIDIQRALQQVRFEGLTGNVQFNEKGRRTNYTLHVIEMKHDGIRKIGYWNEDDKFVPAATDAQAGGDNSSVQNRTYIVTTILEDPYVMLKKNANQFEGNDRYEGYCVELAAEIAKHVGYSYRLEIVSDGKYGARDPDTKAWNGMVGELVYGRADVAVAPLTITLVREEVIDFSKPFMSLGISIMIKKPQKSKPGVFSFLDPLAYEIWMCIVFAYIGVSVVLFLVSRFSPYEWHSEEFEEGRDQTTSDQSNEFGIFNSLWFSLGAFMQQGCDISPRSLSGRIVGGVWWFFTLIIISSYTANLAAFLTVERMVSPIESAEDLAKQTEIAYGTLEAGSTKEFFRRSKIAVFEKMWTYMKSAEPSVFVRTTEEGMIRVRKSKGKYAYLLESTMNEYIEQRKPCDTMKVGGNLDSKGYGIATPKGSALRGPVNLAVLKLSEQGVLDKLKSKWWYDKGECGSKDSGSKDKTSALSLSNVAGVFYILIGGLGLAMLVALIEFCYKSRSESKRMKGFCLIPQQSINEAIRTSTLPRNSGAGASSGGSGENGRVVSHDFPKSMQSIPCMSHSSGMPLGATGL
T1 sequence (Q9Y698 whole entry partner): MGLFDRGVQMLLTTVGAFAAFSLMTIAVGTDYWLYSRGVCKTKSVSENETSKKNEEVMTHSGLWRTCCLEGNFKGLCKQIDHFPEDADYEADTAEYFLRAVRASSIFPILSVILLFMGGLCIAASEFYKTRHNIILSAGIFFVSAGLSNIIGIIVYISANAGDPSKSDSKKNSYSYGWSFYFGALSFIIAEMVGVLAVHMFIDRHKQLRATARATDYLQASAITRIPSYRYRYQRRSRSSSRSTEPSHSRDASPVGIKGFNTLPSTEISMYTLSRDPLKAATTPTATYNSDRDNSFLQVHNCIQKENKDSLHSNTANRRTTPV

In the case of `CN(CC(F)F)C(=O)c1ccc(-c2cccn3c(=O)cc(C(F)(F)F)nc23)cc1` [Example 2, N-(2,2-difluoroethyl)-N-methyl-4-(4-oxo-2-(trifluoromethyl)-4H-pyrido[1,2-a]pyrimidin-9-yl)benzamide], the activation at 30 µM was determined as 103%.
On to `O=C(c1ccc(-c2cccn3c(=O)cc(C(F)(F)F)nc23)cc1)N1CCCC(F)(F)C1` [Example 3, 9-(4-((3,3-difluoropiperidin-1-yl)carbonyl)phenyl)-2-(trifluoromethyl)-4H-pyrido[1,2-a]pyrimidin-4-one], for which the activation at 30 µM was found to be 74.8%.
For the molecule `O=C(c1ccc(-c2cccn3c(=O)cc(C(F)(F)F)nc23)cc1)N1CCC(O)(C(F)(F)F)C1` (stereo not drawn) [Example 6, 9-(4-((3-hydroxy-3-(trifluoromethyl)pyrrolidin-1-yl)carbonyl)phenyl)-2 (trifluoromethyl)-4H-pyrido[1,2-a]pyrimidin-4-one], the “hGluR1 flip/30 μM (%)” value was 88.7%.
Take `CC1(O)CCN(C(=O)c2ccc(-c3cccn4c(=O)cc(C(F)(F)F)nc34)cc2)CC1` [Example 7, 9-(4-((4-hydroxy-4-methylpiperidin-1-yl)carbonyl)phenyl)-2-(trifluoromethyl)-4H-pyrido[1,2-a]pyrimidin-4-one]: the activation at 30 µM stood at 94%.
Take `CCC1(O)CCN(C(=O)c2ccc(-c3cccn4c(=O)cc(C(F)(F)F)nc34)cc2)CC1` [Example 8, 9-(4-((4-ethyl-4-hydroxypiperidin-1-yl)carbonyl)phenyl)-2-(trifluoromethyl)-4H-pyrido[1,2-a]pyrimidin-4-one]: the activation at 30 µM was determined as 79.6%.
As for `O=C(c1ccc(-c2cccn3c(=O)cc(C(F)(F)F)nc23)cc1)N1CCC(O)C(F)(F)C1` (stereo not drawn) [Example 10, 9-(4-((3,3-difluoro-4-hydroxypiperidin-1-yl)carbonyl)phenyl)-2-(trifluoromethyl)-4H-pyrido[1,2-a]pyrimidin-4-one], the activation at 30 µM amounted to 72.7%.
For `O=C(c1ccc(-c2cccn3c(=O)cc(C(F)(F)F)nc23)cc1)N1CCC(O)(C(F)(F)F)C1` (stereo not drawn) [Example 15, 9-(4-((3-hydroxy-3-(trifluoromethyl)pyrrolidin-1-yl)carbonyl)phenyl)-2-(trifluoromethyl)-4H-pyrido[1,2-a]pyrimidin-4-one], the activation at 30 µM is 79.9%.
With `O=C(c1ccc(-c2cccn3c(=O)cc(C(F)(F)F)nc23)cc1)N1CCC(O)(C(F)(F)F)C1` (stereo not drawn) [Example 16, 9-(4-((3-hydroxy-3-(trifluoromethyl)pyrrolidin-1-yl)carbonyl)phenyl)-2-(trifluoromethyl)-4H-pyrido[1,2-a]pyrimidin-4-one], the “hGluR1 flip/30 μM (%)” value was 88.3%.
On to `O=C(c1ccc(-c2cccn3c(=O)c(Cl)c(C(F)(F)F)nc23)cc1)N1CCOCC1` [Example 17, 3-chloro-9-(4-(morpholin-4-ylcarbonyl)phenyl)-2-(trifluoromethyl)-4H-pyrido[1,2-a]pyrimidin-4-one], for which the activation at 30 µM was 95.2%.
In the case of `O=C(c1ccc(-c2cccn3c(=O)c(Br)c(C(F)(F)F)nc23)cc1)N1CCOC(F)(F)C1` [Example 19, 3-bromo-9-(4-((2,2-difluoromorpholin-4-yl)carbonyl)phenyl)-2-(trifluoromethyl)-4H-pyrido[1,2-a]pyrimidin-4-one], the activation at 30 µM stood at 79.4%.
On to `Cc1c(C(F)(F)F)nc2c(-c3ccc(C(=O)N4CCOC(C(F)F)C4)cc3)cccn2c1=O` (stereo not drawn) [Example 23, 9-(4-((2-(difluoromethyl)morpholin-4-yl)carbonyl)phenyl)-3-methyl-2-(trifluoromethyl)-4H-pyrido[1,2-a]pyrimidin-4-one], for which the activation at 30 µM was found to be 83.5%.
For `Cc1c(C(F)(F)F)nc2c(-c3ccc(C(=O)N4CC(F)(F)C4)cc3)cccn2c1=O` [Example 24, 9-(4-((3,3-difluoroazetidin-1-yl)carbonyl)phenyl)-3-methyl-2-(trifluoromethyl)-4H-pyrido[1,2-a]pyrimidin-4-one], the activation at 30 µM came to 76.9%.

The values above are taken from patent publication US11407748B2, “Substituted pyrido[1,2-a]pyrimidines and pyrazino[1,2-a]pyrimidines for enhancing AMPA receptor function” (Takeda Pharmaceutical Company Limited, priority 2017, dated 2022).
